Measured values taken from ChEMBL document CHEMBL1201862, “PubChem BioAssay data set” (2004).
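Five compound concentrations were applied to cells in 96-well plates for 48 hours; endpoints were derived by simple linear interpolation of the resulting dose-response curve. At the GI50, growth is halved.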 The source made the active and inactive calls. Rule as the data show it: active = GI50 up to about 1.1 µM and inactive = higher.

Legend:
Test in all cases: growth of human tumour cells (NCI), 48 h
A549 = system: A549
CCRF-CEM = system: CCRF-CEM
DU-145 = system: DU-145
HCC 2998 = system: HCC 2998
HCT-116 = system: HCT-116
HL-60 = system: HL-60
HOP-62 = system: HOP-62
KM12 = system: KM12
MOLT-4 = system: MOLT-4
OVCAR-5 = system: OVCAR-5
SF-268 = system: SF-268
SF-539 = system: SF-539
SK-MEL-5 = system: SK-MEL-5
SNB-19 = system: SNB-19
SR = system: SR
TK-10 = system: TK-10
UACC-62 = system: UACC-62
UO-31 = system: UO-31
HOP-92 = system: HOP-92

Measured: GI50

COc1ccc(N[S+]([O-])c2ccc(OC)cc2)cc1 (stereo not given)
inactive: A549 33.6 µM | CCRF-CEM 45.5 µM | DU-145 64.9 µM | HCC 2998 41.3 µM | HCT-116 41.2 µM | HL-60 41.2 µM | HOP-62 61.8 µM | KM12 7.8 µM | MOLT-4 35.4 µM | OVCAR-5 > 100 µM | SF-268 6.75 µM | SF-539 14.6 µM | SK-MEL-5 18.8 µM | SNB-19 60.1 µM | SR 26.9 µM | TK-10 > 100 µM | UACC-62 14.6 µM | UO-31 12.5 µM

Oc1ccc2c3c1OC1C(=NN=C4CCC5(O)C6Cc7ccc(O)c8c7C5(CCN6CC5CC5)C4O8)CCC4(O)C(C2)N(CC2CC2)CCC314 (stereo not given)
inactive: A549 20.5 µM | CCRF-CEM 22.9 µM | HCC 2998 21.5 µM | HCT-116 16.6 µM | HL-60 16.4 µM | HOP-62 30.3 µM | HOP-92 21.1 µM | KM12 19.8 µM | MOLT-4 23.7 µM | OVCAR-5 > 100 µM | SF-268 > 50.4 µM | SF-539 27.1 µM | SK-MEL-5 19 µM | SNB-19 52.7 µM | SR 26.7 µM | TK-10 > 46.2 µM | UACC-62 20.5 µM | UO-31 > 100 µM

COc1ccc(OC)c(NC(=O)CCC/C(CC(=O)c2ccc(O)c(OC)c2)=N\Nc2ccc([N+](=O)[O-])cc2)c1
inactive: A549 > 100 µM | CCRF-CEM 68.2 µM | HCC 2998 > 100 µM | HCT-116 > 100 µM | HL-60 > 100 µM | HOP-62 69.5 µM | HOP-92 34.3 µM | KM12 94.6 µM | MOLT-4 > 100 µM | OVCAR-5 > 100 µM | SF-268 > 100 µM | SF-539 57.7 µM | SK-MEL-5 > 100 µM | SNB-19 26.6 µM | SR > 100 µM | TK-10 50.2 µM | UACC-62 48.8 µM | UO-31 83 µM

O=C(C(=O)N1CC2C=CC1CC2)c1c[nH]c2ccccc12 (stereo not given)
inactive: A549 > 100 µM | CCRF-CEM > 100 µM | HCC 2998 > 100 µM | HCT-116 > 100 µM | HL-60 > 100 µM | HOP-62 > 100 µM | HOP-92 > 100 µM | KM12 > 100 µM | MOLT-4 > 100 µM | OVCAR-5 > 100 µM | SF-268 > 100 µM | SF-539 > 100 µM | SK-MEL-5 > 100 µM | SNB-19 > 100 µM | SR > 100 µM | TK-10 > 100 µM | UACC-62 > 100 µM | UO-31 > 100 µM

O=C1O/C(=C(\Br)c2cccc3ccccc23)c2ccccc21
inactive: A549 20 µM | CCRF-CEM 20 µM | HCC 2998 > 65.3 µM | HCT-116 31.4 µM | HL-60 19.5 µM | HOP-62 > 100 µM | HOP-92 29 µM | KM12 29.7 µM | MOLT-4 21.5 µM | OVCAR-5 > 40.2 µM | SF-268 > 37.5 µM | SF-539 48.1 µM | SK-MEL-5 22.8 µM | SR 19.7 µM | TK-10 30.4 µM | UACC-62 35.2 µM | UO-31 > 41.3 µM

CC[C@H](CCCC[C@H]1CC[C@@H]2CC(=O)C[C@H]12)OC
inactive: A549 93.8 µM | CCRF-CEM 60.7 µM | HCC 2998 > 100 µM | HCT-116 52.2 µM | HL-60 24 µM | HOP-62 > 100 µM | HOP-92 27.4 µM | KM12 > 100 µM | MOLT-4 53.6 µM | SF-539 > 100 µM | SK-MEL-5 31.4 µM | SNB-19 > 100 µM | SR 32.9 µM | TK-10 > 100 µM | UACC-62 60 µM

N/N=C1\C(=O)N(c2ccc(Cl)cc2Cl)C(=O)C(=O)C1c1nc2ccccc2o1 (stereo not given)
inactive: A549 > 100 µM | CCRF-CEM 57.5 µM | HCC 2998 > 100 µM | HCT-116 > 100 µM | HL-60 > 100 µM | HOP-62 > 100 µM | HOP-92 > 100 µM | KM12 > 100 µM | MOLT-4 > 100 µM | OVCAR-5 > 100 µM | SF-268 > 100 µM | SF-539 > 100 µM | SK-MEL-5 > 100 µM | SNB-19 > 100 µM | TK-10 > 100 µM | UACC-62 11.4 µM | UO-31 48.3 µM

Cc1ccc2nc(NC(=O)C(=O)C(C(=O)c3ccc4ccccc4c3)C3OC(=O)c4ccccc43)sc2c1 (stereo not given)
inactive: A549 11.5 µM | HCC 2998 11.3 µM | HCT-116 5.6 µM | HOP-62 11 µM | HOP-92 3.53 µM | KM12 16.8 µM | OVCAR-5 11.6 µM | SF-268 8.3 µM | SF-539 2.63 µM | SK-MEL-5 10.5 µM | SNB-19 6.55 µM | SR 3.33 µM | UACC-62 6.98 µM | UO-31 14.6 µM

COc1ccc(-c2cc(=O)c3ccccc3[nH]2)c(OC)c1
inactive: A549 > 100 µM | CCRF-CEM > 100 µM | HCC 2998 > 10 µM | HCT-116 > 100 µM | HL-60 73.6 µM | HOP-62 > 100 µM | KM12 > 100 µM | MOLT-4 > 100 µM | SF-268 > 100 µM | SF-539 > 100 µM | SNB-19 > 100 µM | SR > 100 µM | TK-10 > 100 µM | UACC-62 > 100 µM | UO-31 > 100 µM

CC(=O)O[C@H]1CC[C@@]2(C)C(=CC[C@@H]3C2CC[C@]2(C)Nc4[nH]ncc4CC32)C1 (stereo not given in full)
inactive: A549 32.2 µM | CCRF-CEM 18.2 µM | HCC 2998 > 100 µM | HCT-116 16.4 µM | HL-60 20.5 µM | HOP-62 > 100 µM | KM12 16.6 µM | MOLT-4 15.4 µM | OVCAR-5 > 100 µM | SF-539 20 µM | SK-MEL-5 19.1 µM | TK-10 > 100 µM | UACC-62 26.1 µM | UO-31 87.7 µM

CC(C)(C)C1CC[C@H]2c3c([nH]c4ccc(Br)cc34)[C@H]3C(=O)N(c4ccccc4)C(=O)[C@H]3[C@H]2C1 (stereo not given in full)
inactive: A549 27.4 µM | CCRF-CEM 5.52 µM | HCC 2998 > 100 µM | HCT-116 11.3 µM | HL-60 7.71 µM | HOP-62 54 µM | HOP-92 23.1 µM | KM12 17.6 µM | MOLT-4 15.6 µM | OVCAR-5 > 100 µM | SF-268 8.73 µM | SK-MEL-5 28.1 µM | SNB-19 23.6 µM | SR 3.22 µM | TK-10 48.9 µM | UACC-62 23.3 µM | UO-31 74.8 µM

CCC(C)Cn1c(C)nc2c1C(=O)c1ccccc1C2=O (stereo not given)
inactive: A549 31.5 µM | CCRF-CEM 21.4 µM | HCC 2998 47.4 µM | HCT-116 > 10 µM | HL-60 5.06 µM | HOP-62 23.8 µM | HOP-92 20.4 µM | KM12 27.9 µM | MOLT-4 2.91 µM | SF-268 23.9 µM | SF-539 17.7 µM | SK-MEL-5 15 µM | SNB-19 53.6 µM | SR 2.81 µM | TK-10 41.4 µM | UACC-62 9.98 µM | UO-31 24.5 µM

CC1(C)C(=O)C(C)(C)C1=S
inactive: A549 > 100 µM | CCRF-CEM > 100 µM | HCC 2998 > 100 µM | HCT-116 > 100 µM | HL-60 > 100 µM | HOP-62 > 100 µM | KM12 > 100 µM | MOLT-4 > 100 µM | OVCAR-5 > 100 µM | SF-268 > 100 µM | SK-MEL-5 > 100 µM | SNB-19 > 100 µM | SR > 100 µM | TK-10 > 100 µM | UACC-62 > 100 µM | UO-31 > 100 µM

O=C(NCCCN(CCCCN(CCCNC(=O)C(F)(F)F)CCCc1ccccc1)CCCc1ccccc1)C(F)(F)F
inactive: A549 1.82 µM | CCRF-CEM 4.63 µM | DU-145 2 µM | HCC 2998 1.78 µM | HCT-116 2.47 µM | HL-60 2.93 µM | HOP-92 1.62 µM | KM12 1.95 µM | MOLT-4 1.8 µM | OVCAR-5 12.8 µM | SF-268 1.63 µM | SF-539 1.57 µM | SK-MEL-5 1.69 µM | SNB-19 2 µM | TK-10 1.91 µM | UACC-62 1.8 µM | UO-31 1.26 µM

CCOP(=O)(C/C(O)=C1\C(=O)C(CCCNC(=O)OC(C)(C)C)N(Cc2ccc(OC)c(OC)c2)C1=O)OCC (stereo not given)
inactive: A549 > 100 µM | CCRF-CEM > 100 µM | HCC 2998 > 100 µM | HCT-116 > 100 µM | HL-60 > 100 µM | HOP-62 > 100 µM | KM12 > 100 µM | MOLT-4 > 100 µM | OVCAR-5 > 100 µM | SF-268 > 100 µM | SF-539 > 100 µM | SK-MEL-5 > 100 µM | SNB-19 > 100 µM | SR > 100 µM | TK-10 > 100 µM | UACC-62 > 100 µM | UO-31 > 100 µM

COC(C)(C)[C@H](O)C(O)CC(C)[C@@H]1CCC23CC12CCC1[C@@]2(C)CCC(OC(C)=O)C(C)(C)C2CC(OC2OC(COC(C)=O)C(O)C(O)C2O)[C@]13C (stereo not given in full)
inactive: A549 2.94 µM | CCRF-CEM 2.55 µM | HCC 2998 1.57 µM | HCT-116 2.26 µM | HL-60 1.35 µM | HOP-62 8.49 µM | HOP-92 3.72 µM | KM12 2.16 µM | MOLT-4 4.19 µM | OVCAR-5 2.34 µM | SF-268 3.48 µM | SF-539 2.72 µM | SK-MEL-5 5.48 µM | SNB-19 6.84 µM | TK-10 7.23 µM | UACC-62 2.77 µM | UO-31 6.95 µM
